Here are results for 25 molecules from US11180474B2 (BRISTOL-MYERS SQUIBB COMPANY, priority 2016, dated 2021).

One may read the IC50 as the concentration that gives 50% inhibition.

This test has as its target T1, human TLR8 (Homo sapiens, UniProt Q9NR97).
T1 construct: host or cells: HEK-Blue cells
T1 sequence (Q9NR97 27-1041): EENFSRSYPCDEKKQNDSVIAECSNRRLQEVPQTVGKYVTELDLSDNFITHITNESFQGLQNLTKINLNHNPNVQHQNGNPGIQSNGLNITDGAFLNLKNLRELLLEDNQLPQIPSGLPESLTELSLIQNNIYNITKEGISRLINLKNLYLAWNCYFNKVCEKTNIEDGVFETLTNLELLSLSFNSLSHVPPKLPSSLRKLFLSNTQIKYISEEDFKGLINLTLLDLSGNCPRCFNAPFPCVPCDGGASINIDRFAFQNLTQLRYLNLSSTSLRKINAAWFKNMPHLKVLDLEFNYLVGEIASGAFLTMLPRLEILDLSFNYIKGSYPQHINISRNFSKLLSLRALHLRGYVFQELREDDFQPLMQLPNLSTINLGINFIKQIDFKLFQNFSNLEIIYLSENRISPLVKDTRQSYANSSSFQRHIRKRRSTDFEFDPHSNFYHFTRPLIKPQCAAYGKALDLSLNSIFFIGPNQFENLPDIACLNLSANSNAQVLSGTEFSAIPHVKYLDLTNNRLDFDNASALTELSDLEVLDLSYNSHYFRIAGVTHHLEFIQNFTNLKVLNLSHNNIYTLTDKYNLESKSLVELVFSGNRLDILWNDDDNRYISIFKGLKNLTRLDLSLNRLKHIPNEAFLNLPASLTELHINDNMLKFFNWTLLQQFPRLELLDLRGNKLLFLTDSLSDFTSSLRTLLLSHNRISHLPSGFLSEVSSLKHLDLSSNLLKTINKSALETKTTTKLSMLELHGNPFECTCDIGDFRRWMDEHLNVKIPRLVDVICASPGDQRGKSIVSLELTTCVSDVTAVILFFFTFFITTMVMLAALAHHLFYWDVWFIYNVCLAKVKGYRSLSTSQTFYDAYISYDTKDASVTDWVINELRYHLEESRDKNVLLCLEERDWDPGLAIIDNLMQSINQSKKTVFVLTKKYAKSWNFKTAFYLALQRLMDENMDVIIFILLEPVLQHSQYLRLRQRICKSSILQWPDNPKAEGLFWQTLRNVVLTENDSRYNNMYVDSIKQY
Nature of the test: TLR8 inhibition reporter assay (HEK-Blue cells, SEAP reporter, R848 stimulation). As to conditions: HEK-Blue cells overexpressing human TLR8, R848 15.9 μM. The test is classed as cell-based. In a few lines: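 22 h, 37° C, 5% CO2 incubation; compounds 0.05 nM-50 μM final; TLR7 cells 15000/well, TLR8 20,000/well. Readout: SEAP via HEK-Blue Detection medium. % inhibition = signal reduction versus agonist + DMSO wells, referenced to known inhibitor.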
In general terms: A reporter such as luciferase makes a cellular process visible.
On to `COc1ccc(-c2[nH]c3ccc(C4CCN(C(=O)CN5CCC(N6CCN(C)CC6)CC5)CC4)cc3c2C(C)C)cc1OC` [Example 241, 1-(4-(2-(3,4-dimethoxyphenyl)-3-isopropyl-1H-indol-5-yl)piperidin-1-yl)-2-(4-(4-methylpiperazin-1-yl)piperidin-1-yl)ethan-1-one], for which the IC50 was determined as 13 nM.

For `COc1ccc(-c2[nH]c3ccc(C4CCN(C(=O)CN(C)CCO)CC4)cc3c2C(C)C)cc1OC` [Example 242, 1-(4-(2-(3,4-dimethoxyphenyl)-3-isopropyl-1H-indol-5-yl)piperidin-1-yl)-2-((2-hydroxyethyl)(methyl)amino)ethan-1-one], the IC50 turned out to be 14 nM.

`COc1ccc(-c2[nH]c3ccc(C4CCN(C(=O)CN5CCC(CO)CC5)CC4)cc3c2C(C)C)cc1OC` [Example 243, 1-(4-(2-(3,4-dimethoxyphenyl)-3-isopropyl-1H-indol-5-yl)piperidin-1-yl)-2-(4-(hydroxymethyl)piperidin-1-yl)ethan-1-one]: 16 nM corresponded to half-maximal inhibition (IC50).

In turn, `COc1ccc(-c2[nH]c3ccc(C4CCN(C(=O)CN5CCC(N(C)C)CC5)CC4)cc3c2C(C)C)cc1OC` [Example 244, 1-(4-(2-(3,4-dimethoxyphenyl)-3-isopropyl-1H-indol-5-yl)piperidin-1-yl)-2-(4-(dimethylamino)piperidin-1-yl)ethan-1-one] returned an IC50 of 16 nM.

In turn, `COc1ccc(-c2[nH]c3ccc(C4CCN(C(=O)CNC5CCC(C(C)(C)O)CC5)CC4)cc3c2C(C)C)cc1OC` (stereo not shown) [Example 245, 1-(4-(2-(3,4-dimethoxyphenyl)-3-isopropyl-1H-indol-5-yl)piperidin-1-yl)-2-((4-(2-hydroxypropan-2-yl)cyclohexyl)amino)ethan-1-one] came in with a concentration for half-maximal inhibition (IC50) of 26 nM.

As for `COc1ccc(-c2[nH]c3ccc(C4CCN(C(=O)CNC5CCC(O)CC5)CC4)cc3c2C(C)C)cc1OC` (stereo not shown) [Example 246, 1-(4-(2-(3,4-dimethoxyphenyl)-3-isopropyl-1H-indol-5-yl)piperidin-1-yl)-2-((4-hydroxycyclohexyl)amino)ethan-1-one], the midpoint of inhibition, the IC50, lay at 19 nM.

For `CCN(CC)C(=O)C1CCCN(CC(=O)N2CCC(c3ccc4[nH]c(-c5ccc(OC)c(OC)c5)c(C(C)C)c4c3)CC2)C1` (stereo not shown) [Example 247, 1-(2-(4-(2-(3,4-dimethoxyphenyl)-3-isopropyl-1H-indol-5-yl)piperidin-1-yl)-2-oxoethyl)-N,N-diethylpiperidine-3-carboxamide], the half-maximal inhibitory concentration (IC50) turned out to be 38 nM.

Molecule `CCN(CC)C(=O)C1CCCN(CC(=O)N2CCC(c3ccc4[nH]c(-c5ccc(OC)c(OC)c5)c(C(C)C)c4c3)CC2)C1` (stereo not shown) [Example 248, 1-(2-(4-(2-(3,4-dimethoxyphenyl)-3-isopropyl-1H-indol-5-yl)piperidin-1-yl)-2-oxoethyl)-N,N-diethylpiperidine-3-carboxamide] gave an IC50 of 22 nM.

As to `COc1ccc(-c2[nH]c3ccc(C4CCN(C(=O)CN5CCCC(CO)C5)CC4)cc3c2C(C)C)cc1OC` (stereo not shown) [Example 249, 1-(4-(2-(3,4-dimethoxyphenyl)-3-isopropyl-1H-indol-5-yl)piperidin-1-yl)-2-(3-(hydroxymethyl)piperidin-1-yl)ethan-1-one], it took 17 nM to reach half-maximal inhibition (IC50).

On to `COc1ccc(-c2[nH]c3ccc(C4CCN(C(=O)CNC[C@@H](F)C(C)(C)O)CC4)cc3c2C(C)C)cc1OC` [Example 251, (R)-1-(4-(2-(3,4-dimethoxyphenyl)-3-isopropyl-1H-indol-5-yl)piperidin-1-yl)-2-((2-fluoro-3-hydroxy-3-methylbutyl)amino) ethan-1-one], for which the IC50 worked out at 750 nM.

Regarding `COc1ccc(-c2[nH]c3ccc(C4CCN(C(=O)C[C@H](C)N)CC4)cc3c2C(C)C)cc1OC` [Example 253, (S)-3-amino-1-(4-(2-(3,4-dimethoxyphenyl)-3-isopropyl-1H-indol-5-yl)piperidin-1-yl)butan-1-one], the concentration for half-maximal inhibition (IC50) stood at 19 nM.

`CNCC(=O)N1CCC(c2ccc3[nH]c(-c4ccc(OC)c(OC)c4)c(C(C)C)c3c2)CC1` [Example 256, 1-(4-(2-(3,4-dimethoxyphenyl)-3-isopropyl-1H-indol-5-yl)piperidin-1-yl)-2-(methylamino)ethan-1-one] registered a half-maximal inhibitory concentration (IC50) of 35 nM.

Consider `COc1ccc(-c2[nH]c3ccc(C4CCN(Cc5cncn5C)CC4)cc3c2C(C)C)cc1OC` [Example 258, 2-(3,4-dimethoxyphenyl)-3-isopropyl-5-(1-((1-methyl-1H-imidazol-5-yl)methyl)piperidin-4-yl)-1H-indole], for which 17 nM corresponded to half-maximal inhibition (IC50).

For `COc1ccc(-c2[nH]c3ccc(C4CCN(Cc5cnn(C)c5)CC4)cc3c2C(C)C)cc1OC` [Example 259, 2-(3,4-dimethoxyphenyl)-3-isopropyl-5-(1-((1-methyl-1H-pyrazol-4-yl)methyl)piperidin-4-yl)-1H-indole], half-maximal inhibition (IC50) was put at 11 nM.

`COc1ccc(-c2[nH]c3ccc(C4CCN(Cc5nccn5C)CC4)cc3c2C(C)C)cc1OC` [Example 262, 2-(3,4-dimethoxyphenyl)-3-isopropyl-5-(1-((1-methyl-1H-imidazol-2-yl)methyl)piperidin-4-yl)-1H-indole]: it took 23 nM to reach half-maximal inhibition (IC50).

Turning to `COc1ccc(-c2[nH]c3ccc(C4CCN(Cc5cnc(C)[nH]5)CC4)cc3c2C(C)C)cc1OC` [Example 266, 2-(3,4-dimethoxyphenyl)-3-isopropyl-5-(1-((2-methyl-1H-imidazol-5-yl)methyl)piperidin-4-yl)-1H-indole], inhibition was half-maximal at 20 nM (IC50).

`COc1ccc(-c2[nH]c3ccc(C4CCN(Cc5cnc[nH]5)CC4)cc3c2C(C)C)cc1OC` [Example 268, 5-(1-((1H-imidazol-5-yl)methyl)piperidin-4-yl)-2-(3,4-dimethoxyphenyl)-3-isopropyl-1H-indole]: half-maximal inhibition (IC50) was put at 15 nM.

On to `CCN(CC)C(=O)C1CCCN(C(=O)CN2CCC(c3ccc4[nH]c(-c5ccc(OC)c(OC)c5)c(C(C)C)c4c3)CC2)C1` (stereo not shown) [Example 272, 1-(2-(4-(2-(3,4-dimethoxyphenyl)-3-isopropyl-1H-indol-5-yl)piperidin-1-yl)acetyl)-N,N-diethylpiperidine-3-carboxamide], for which the half-maximal inhibitory concentration (IC50) was found to be 37 nM.

In turn, `COc1ccc(-c2[nH]c3ccc(C4CCN(CC(=O)NC5CCN(C(C)C)CC5)CC4)cc3c2C(C)C)cc1OC` [Example 273, 2-(4-(2-(3,4-dimethoxyphenyl)-3-isopropyl-1H-indol-5-yl)piperidin-1-yl)-N-(1-isopropylpiperidin-4-yl)acetamide] registered an IC50 of 29 nM.

`COc1ccc(-c2[nH]c3ccc(C4CCN(CC(=O)N5CCN(C)CC5)CC4)cc3c2C(C)C)cc1OC` [Example 274, 2-(4-(2-(3,4-dimethoxyphenyl)-3-isopropyl-1H-indol-5-yl)piperidin-1-yl)-1-(4-methylpiperazin-1-yl) ethan-1-one]: the half-maximal inhibitory concentration (IC50) is 228 nM.

In the case of `COc1ccc(-c2[nH]c3ccc(C4CCN(CC(=O)N5CCCC(CO)C5)CC4)cc3c2C(C)C)cc1OC` (stereo not shown) [Example 275, 2-(4-(2-(3,4-dimethoxyphenyl)-3-isopropyl-1H-indol-5-yl)piperidin-1-yl)-1-(3-(hydroxymethyl)piperidin-1-yl)ethan-1-one], the half-inhibitory concentration (IC50) is 22 nM.

In turn, `COc1ccc(-c2[nH]c3ccc(C4CCN(CC(=O)NCCO)CC4)cc3c2C(C)C)cc1OC` [Example 276, 2-(4-(2-(3,4-dimethoxyphenyl)-3-isopropyl-1H-indol-5-yl)piperidin-1-yl)-N-(2-hydroxyethyl) acetamide] came in with an IC50 of 27 nM.

In turn, `COc1ccc(-c2[nH]c3ccc(C4CCN(CC(=O)NCCCO)CC4)cc3c2C(C)C)cc1OC` [Example 277, 2-(4-(2-(3,4-dimethoxyphenyl)-3-isopropyl-1H-indol-5-yl)piperidin-1-yl)-N-(3-hydroxypropyl)acetamide] returned an IC50 of 37 nM.

On to `COc1ccc(-c2[nH]c3ccc(C4CCN(CC(=O)N5CC[C@H](O)C5)CC4)cc3c2C(C)C)cc1OC` [Example 278, (S)-2-(4-(2-(3,4-dimethoxyphenyl)-3-isopropyl-1H-indol-5-yl)piperidin-1-yl)-1-(3-hydroxypyrrolidin-1-yl)ethan-1-one], for which the half-inhibitory concentration (IC50) is 11 nM.

In the case of `COc1ccc(-c2[nH]c3ccc(C4CCN(CC(=O)N[C@H]5CC[C@H](C(C)(C)O)CC5)CC4)cc3c2C(C)C)cc1OC` [Example 279, 2-(4-(2-(3,4-dimethoxyphenyl)-3-isopropyl-1H-indol-5-yl)piperidin-1-yl)-N-((1r,4r)-4-(2-hydroxypropan-2-yl)cyclohexyl)acetamide], the IC50 amounted to 1160 nM.
